Here are results for 29 molecules from US9920010B2, “CXCR7 receptor modulators” (IDORSIA PHARMACEUTICALS LTD, priority 2013, dated 2018).

The target of this assay is T1, CXCR7 (Homo sapiens, UniProt P25106).
T1 construct: host or cells: CHO-K1 (PathHunter CHO-K1 CXCR7 b-arrestin cell line, stably transfected)
T1 sequence (P25106 whole entry): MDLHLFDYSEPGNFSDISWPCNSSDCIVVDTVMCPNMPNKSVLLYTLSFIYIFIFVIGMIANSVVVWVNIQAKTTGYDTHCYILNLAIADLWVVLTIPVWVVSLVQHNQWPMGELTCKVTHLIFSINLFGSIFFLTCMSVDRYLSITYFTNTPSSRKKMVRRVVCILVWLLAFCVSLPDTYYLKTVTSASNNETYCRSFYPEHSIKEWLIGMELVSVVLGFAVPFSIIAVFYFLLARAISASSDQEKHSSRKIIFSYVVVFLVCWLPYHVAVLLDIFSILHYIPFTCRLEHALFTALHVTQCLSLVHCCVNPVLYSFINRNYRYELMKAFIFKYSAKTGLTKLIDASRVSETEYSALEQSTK
T1 sequence (P32121 whole entry partner): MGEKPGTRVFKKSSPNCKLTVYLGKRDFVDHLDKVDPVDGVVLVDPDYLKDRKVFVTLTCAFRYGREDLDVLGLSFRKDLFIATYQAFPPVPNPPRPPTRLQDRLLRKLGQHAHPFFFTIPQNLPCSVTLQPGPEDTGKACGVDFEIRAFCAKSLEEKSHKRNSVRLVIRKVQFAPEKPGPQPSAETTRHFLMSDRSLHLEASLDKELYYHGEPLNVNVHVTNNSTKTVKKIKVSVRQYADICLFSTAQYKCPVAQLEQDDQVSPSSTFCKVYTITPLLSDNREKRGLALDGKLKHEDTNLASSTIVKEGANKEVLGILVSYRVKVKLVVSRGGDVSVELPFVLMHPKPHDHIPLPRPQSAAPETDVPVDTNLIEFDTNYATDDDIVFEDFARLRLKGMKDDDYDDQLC
The assay can be described thus: PathHunter CHO-K1 CXCR7 b-arrestin recruitment assay (CXCR7 agonistic activity). Format: cell-based. The settings on record: PathHunter CHO-K1 CXCR7 b-arrestin cell line. The procedure:
The CXCl12 receptor and CXCR7 agonistic activities of the compounds of formula (I) are determined in accordance with the following experimental method.
The assay is using the PathHunter™ CHO-K1 CXCR7 b-arrestin cell line from DiscoverX. The system is based on the Enzyme Fragment Complementation Technology. Two complementing fragments of the b-galactosidase enzyme are expressed within stably transfected cells. The larger portion of b-gal, termed EA for Enzyme Acceptor, is fused to the C-terminus of b-arrestin 2. The smaller fragment, termed ProLink™ tag, is fused to CXCR7 at the C-terminus. Upon activation, b-arrestin is recruited which forces the interaction of ProLink and EA, allowing complementation of the two fragments of b-gal and the formation of a functional enzyme which is capable of hydrolysing the substrate and generating a chemiluminescent signal.
CHO-K1 CXCR7 b-arrestin cells are detached from culture dishes with a cell dissociation buffer (Invitrogen, #13151-014) and collected in growing medium (F12 HAMS 90% (v/v)/FCS 10% (v/v), Penicillin/streptomycin 1% (v/v)). 5000 cells per well (in 20 μl) are seeded in a 384 well plate (white-walled, clear bottom; BD Falcon #353274). The plate is incubated at 37° C./5% CO2 for 24 hours. Medium is then replaced by 20 μl OPTIMEM (Invitrogen #31985) for 3 to 4 hours. Test compounds are dissolved at 10 mM in DMSO and serially diluted in DMSO to 200× of the final concentration for dose response curves. Compounds are then diluted 1:33.3 in HBSS1×. 5 μl/well of HBSS1×/20 mM HEPES/0.2% BSA are added to the assay plate followed by addition of 5 μl/well of diluted compounds. CXCL12 (Peprotech #300-28A) may be used as a reference agonist. The plate is incubated for 90 minutes at 37° C. 12 μl of detection reagent (Path Hunter Detection Kit, DiscoveRx, #93-0001) is transferred to the assay plate and to the plate is incubated for 1 hour at room temperature. Luminescent signal is read in a microplate reader (FLUOstar Optima, bmg). The calculated EC50 values may fluctuate depending on the daily cellular assay performance. Fluctuations of this kind are known to those skilled in the art. Average EC50 values from several measurements are given as geometric mean values.
In general terms: Recruitment of arrestin is a read-out of receptor activation apart from second messengers.
Consider `CN(C)CCN(Cc1ccccc1C(F)(F)F)C(=O)CNc1cccc2c1CN(C(=O)C(C)(C)C)CC2` [compound 551, N-(2-Dimethylamino-ethyl)-2-[2-(2,2-dimethyl-propionyl)-1,2,3,4-tetrahydro-isoquinolin-8-ylamino]-N-(2-trifluoromethyl-benzyl)-acetamide], for which the EC50 (commonly the midpoint of the concentration-response curve) worked out at 35 nM.

Take `CN(C)CCN(Cc1ccccc1C(F)(F)F)C(=O)COc1cccc2c1CCN(CC1CC1)C2` [compound 174, 2-(2-Cyclopropylmethyl-1,2,3,4-tetrahydro-isoquinolin-5-yloxy)-N-(2-dimethylamino-ethyl)-N-(2-trifluoromethyl-benzyl)-acetamide]: a half-maximal response (EC50) required 0.8 nM. With `CN(C)CCN(Cc1ccccc1)C(=O)CNc1cccc2c1CCN(C(=O)OC(C)(C)C)C2` [Example 8, 5-({[Benzyl-(2-dimethylamino-ethyl)-carbamoyl]-methyl}-amino)-3,4-dihydro-1H-isoquinoline-2-carboxylic acid tert-butyl ester], the EC50 is 230 nM.

`CCN1CCc2cccc(NCC(=O)N(CCN(C)C)Cc3cccc(C)n3)c2C1` [compound 526, N-(2-Dimethylamino-ethyl)-2-(2-ethyl-1,2,3,4-tetrahydro-isoquinolin-8-ylamino)-N-(6-methyl-pyridin-2-ylmethyl)-acetamide] came in with an EC50 of 44 nM. Molecule `CCN1CCc2cccc(NCC(=O)N(CCN(C)C)Cc3ccc(C(F)(F)F)cc3)c2C1` [compound 506] displayed an EC50 of 155 nM.

Consider `CC(C)CN1CCc2cccc(NCC(=O)N(CCN(C)C)Cc3ccccc3)c2C1` [compound 189, N-Benzyl-N-(2-dimethylamino-ethyl)-2-(2-isobutyl-1,2,3,4-tetrahydro-isoquinolin-8-ylamino)-acetamide], for which the 50% effective concentration (EC50) came out at 37 nM. Turning to `COCCN1CCc2c(CCC(=O)N(Cc3ccccc3C(F)(F)F)CC(O)COC)cccc2C1` (centres unmarked) [Example 339, N-(2-Hydroxy-3-methoxy-propyl)-3-[2-(2-methoxy-ethyl)-1,2,3,4-tetrahydro-isoquinolin-5-yl]-N-(2-trifluoromethyl-benzyl)-propionamide], the EC50 stood at 457 nM. The value for `CCN1Cc2c(NCC(=O)N(CCN(C)C)Cc3ccccc3Cl)cccc2C(C)(C)C1` [compound 196] was 264 nM; that for `CN(C)CCN(Cc1ccccc1C(F)(F)F)C(=O)CNc1cc(C(F)(F)F)cc2c1CCN(CC1CC1)C2` [Example 296, 2-(2-Cyclopropylmethyl-7-trifluoromethyl-1,2,3,4-tetrahydro-isoquinolin-5-ylamino)-N-(2-dimethylamino-ethyl)-N-(2-trifluoromethyl-benzyl)-acetamide] was 430 nM. The value for `CCN1CCc2cccc(NCC(=O)N(CCN(C)C)Cc3nccs3)c2C1` [compound 541] was 175 nM; that for `CCC(=O)N1CCc2c(cccc2NCC(=O)N(CCN(C)C)Cc2ccc(F)cc2)C1` [Example 22, N-(2-Dimethylamino-ethyl)-N-(4-fluoro-benzyl)-2-(2-propionyl-1,2,3,4-tetrahydro-isoquinolin-5-ylamino)-acetamide] was 80 nM. For `CN(C)CCN(Cc1ccccc1C(F)(F)F)C(=O)/C=C/c1cccc2c1CCN(CC1CC1)C2` [compound 150, (E)-3-(2-Cyclopropylmethyl-1,2,3,4-tetrahydro-isoquinolin-5-yl)-N-(2-dimethylamino-ethyl)-N-(2-trifluoromethyl-benzyl)-acrylamide], a half-maximal effect (EC50) was put at 1 nM. As for `CC(C)N(C)CCN(Cc1ccccc1C(F)(F)F)C(=O)CNc1cccc2c1CCN(CC1CC1)C2` [compound 449, 2-(2-Cyclopropylmethyl-1,2,3,4-tetrahydro-isoquinolin-5-ylamino)-N-[2-(isopropyl-methyl-amino)-ethyl]-N-(2-trifluoromethyl-benzyl)-acetamide], the figure is 1 nM. For `CCN1CCc2c(cccc2NCC(=O)N(CCN(C)C)Cc2ccccc2Cl)C1` [compound 133, N-(2-Chloro-benzyl)-N-(2-dimethylamino-ethyl)-2-(2-ethyl-1,2,3,4-tetrahydro-isoquinolin-5-ylamino)-acetamide], the EC50 turned out to be 20 nM. As for `O=C(CNc1cccc2c1CCN(CC1CC1)C2)N(CCN1CCC(F)(F)CC1)Cc1ccccc1Cl` [Example 248, N-(2-Chloro-benzyl)-2-(2-cyclopropylmethyl-1,2,3,4-tetrahydro-isoquinolin-5-ylamino)-N-[2-(4,4-difluoro-piperidin-1-yl)-ethyl]-acetamide], the figure is 32 nM. For the molecule `CN(C)CCN(Cc1ccc(OC(F)(F)F)cc1)C(=O)CNc1cccc2c1CCN(CC1CC1)C2` [Example 228, 2-(2-Cyclopropylmethyl-1,2,3,4-tetrahydro-isoquinolin-5-ylamino)-N-(2-dimethylamino-ethyl)-N-(4-trifluoromethoxy-benzyl)-acetamide], a half-maximal effect (EC50) was put at 117 nM. For `CCN1CCc2cccc(NCC(=O)N(CCN(C)C)Cc3ccccc3F)c2C1` [compound 491, N-(2-Dimethylamino-ethyl)-2-(2-ethyl-1,2,3,4-tetrahydro-isoquinolin-8-ylamino)-N-(2-fluoro-benzyl)-acetamide], a half-maximal response (EC50) required 21 nM. Take `CCN1CCc2c(cccc2N(CC)CC(=O)N(CCN(C)C)Cc2ccccc2)C1` [Example 102, N-Benzyl-N-(2-dimethylamino-ethyl)-2-[ethyl-(2-ethyl-1,2,3,4-tetrahydro-isoquinolin-5-yl)-amino]-acetamide]: the EC50 stood at 370 nM.

`CC(C)N1CCc2cccc(NCC(=O)N(CCN(C)C)Cc3ccccc3)c2C1` [compound 186] came in with an EC50 of 91 nM. As for `COC(=O)N1CCc2cccc(OCC(=O)N(CCN(C)C)Cc3ccccc3)c2C1` [Example 204, 8-{[Benzyl-(2-dimethylamino-ethyl)-carbamoyl]-methoxy}-3,4-dihydro-1H-isoquinoline-2-carboxylic acid methyl ester], the figure is 40 nM.

Consider `COC(=O)N1CCc2c(cccc2NCC(=O)N(CCN(C)C)Cc2ccccc2)C1` [Example 113, 5-({[Benzyl-(2-dimethylamino-ethyl)-carbamoyl]-methyl}-amino)-3,4-dihydro-1H-isoquinoline-2-carboxylic acid methyl ester], for which the EC50 amounted to 26 nM. As for `COCCN1CCc2c(CCC(=O)N(Cc3ccccc3C(F)(F)F)CC3(C)COC3)cccc2C1` [Example 343, 3-[2-(2-Methoxy-ethyl)-1,2,3,4-tetrahydro-isoquinolin-5-yl]-N-(3-methyl-oxetan-3-ylmethyl)-N-(2-trifluoromethyl-benzyl)-propionamide], the EC50 was found to be 415 nM.

Regarding `Cc1csc(CN(CCN(C)C)C(=O)CNc2cccc3c2CCN(CC2CC2)C3)n1` [Example 266, 2-(2-Cyclopropylmethyl-1,2,3,4-tetrahydro-isoquinolin-5-ylamino)-N-(2-dimethylamino-ethyl)-N-(4-methyl-thiazol-2-ylmethyl)-acetamide], a half-maximal response (EC50) required 16 nM.

Consider `CC(CF)N(C)CCN(Cc1ccccc1C(F)(F)F)C(=O)CNc1cccc2c1CCN(CC1CC1)C2` (racemic) [compound 452], for which the concentration giving a half-maximal response (EC50) was determined as 4 nM. The value for `CC(C)CN1CCc2cccc(NCC(=O)N(CCN(C)C)Cc3ccccc3C(F)(F)F)c2C1` [compound 557, N-(2-Dimethylamino-ethyl)-2-(2-isobutyl-1,2,3,4-tetrahydro-isoquinolin-8-ylamino)-N-(2-trifluoromethyl-benzyl)-acetamide] was 5 nM; that for `CN(CCN(Cc1ccccc1C(F)(F)F)C(=O)CNc1cccc2c1CCN(CC1CC1)C2)CC(F)(F)F` [Example 278, 2-(2-Cyclopropylmethyl-1,2,3,4-tetrahydro-isoquinolin-5-ylamino)-N-{2-[methyl-(2,2,2-trifluoro-ethyl)-amino]-ethyl}-N-(2-trifluoromethyl-benzyl)-acetamide] was 79 nM. Consider `COCCN1CCc2c(/C=C/C(=O)N(CCN3CCC(F)(F)CC3)Cc3ncccc3Cl)cccc2C1` [Example 326, (E)-N-(3-Chloro-pyridin-2-ylmethyl)-N-[2-(4,4-difluoro-piperidin-1-yl)-ethyl]-3-[2-(2-methoxy-ethyl)-1,2,3,4-tetrahydro-isoquinolin-5-yl]-acrylamide], for which a half-maximal effect (EC50) was put at 184 nM. `CCN1CCc2cccc(NCC(=O)N(Cc3ccccc3)C3CCNCC3)c2C1` [compound 377] yielded an EC50 of 276 nM. As to `CN1CCCC1CCN(C/C=C/c1ccccc1)C(=O)CNc1cccc2c1CCN(CC1CC1)C2` (racemic) [Example 53, rac-2-(2-Cyclopropylmethyl-1,2,3,4-tetrahydro-isoquinolin-5-ylamino)-N-[2-(1-methyl-pyrrolidin-2-yl)-ethyl]-N-((E)-3-phenyl-allyl)-acetamide], the EC50 was found to be 23 nM.
